Experimental findings from paper PMC6430387, “Vertebrate odorant binding proteins as antimicrobial humoral components of innate immunity for pathogenic microorganisms” (PLoS ONE, 2019) are described below.

Holding throughout (format): binding
Test [1] addresses T1, bovine OBP (6-His-bOBP) (Bos taurus, UniProt P07435).
T1 construct: domain-swapped homodimer
T1 sequence (P07435 1-159): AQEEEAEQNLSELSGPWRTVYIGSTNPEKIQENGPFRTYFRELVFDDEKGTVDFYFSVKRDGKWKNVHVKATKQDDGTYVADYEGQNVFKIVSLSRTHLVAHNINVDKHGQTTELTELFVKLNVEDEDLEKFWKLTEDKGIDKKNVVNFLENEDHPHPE
Nature of the test: direct fluorescence titration.

In test [2] the target is T2, porcine OBP (6-His-pOBP) (Sus scrofa, UniProt P81245).
T2 construct: monomer
T2 sequence (P81245 1-157): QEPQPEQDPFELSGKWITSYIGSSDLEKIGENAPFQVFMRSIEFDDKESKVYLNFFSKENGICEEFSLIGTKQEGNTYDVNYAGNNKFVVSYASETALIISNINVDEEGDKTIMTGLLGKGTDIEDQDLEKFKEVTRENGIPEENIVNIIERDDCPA
Nature of the test: direct fluorescence titration.

Test [3] has as its target T1, bovine OBP (6-His-bOBP). Nature of the test: retention on OBP-Ni-NTA agarose filter; chromatography-MS. The settings on record: 10-40 μM ligand loaded; submillimolar immobilised OBP; uncoupled resin as control.
Test [4] has as its target T1, bovine OBP (6-His-bOBP). The test is described as follows: competitive displacement of 1-aminoanthracene, fluorescence. To be noted: read-out: Kdapp.
The target in test [5] is T2, porcine OBP (6-His-pOBP). Described as above. To be noted: read-out: Kdapp.
Test [6] has as its target T2, porcine OBP (6-His-pOBP). Nature of the test: retention on OBP-Ni-NTA agarose filter, chromatography-MS. The settings on record: 0.34 μM ligand loaded; submillimolar immobilised OBP.
The target of test [7] is T2, porcine OBP (6-His-pOBP). Nature of the test: retention on OBP-Ni-NTA agarose filter; eluate quantified. To be noted: 5 and 10 μM ligand loaded; submillimolar immobilised OBP; uncoupled resin as control.

With `Nc1cccc2cc3ccccc3cc12` [1-aminoanthracene], the values for the dissociation constant Kd at bovine OBP (6-His-bOBP) [1] and on porcine OBP (6-His-pOBP) [2] were 720 nM and 770 nM, respectively.

Consider `CCCC(=O)N[C@H]1CCOC1=O` [C4AHL, N-butyryl-L-homoserine-lactone], for which, on bovine OBP (6-His-bOBP) [3], the “% retention” value was 63.2±5.8%-80.6±4.2%.

Regarding `CC(C)=CCC/C(C)=C/CC/C(C)=C/CO` [farnesol], the IC50 at bovine OBP (6-His-bOBP) [4] came to 3.7 µM; at porcine OBP (6-His-pOBP) [5], 770 nM.

Regarding `CCCCCCCCCC(=O)CC(=O)N[C@H]1CCOC1=O` [oxo-C12AHL, N-(3-oxododecanoil)-L-homoserine-lactone], at porcine OBP (6-His-pOBP) [6], the “% bound” value is given as 89.2±2.4%.

Turning to `Cn1c2cccc(=O)c-2nc2ccccc21` [pyocyanin], the “% retention” value on porcine OBP (6-His-pOBP) [7] is 66±13% and 85±15%.

As usually defined, the Kd is the free concentration of one partner at which half of the binding sites on the other are occupied at equilibrium, for simple one-to-one binding.
